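All cell lines were grown in 96-well plates and treated with compound for 48 hours. TGI: concentration producing complete growth inhibition.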

Test systems include SW-620 colon; NCI-H23 lung; SK-MEL-28 melanoma; M14 melanoma; SF-268 CNS; OVCAR-4 ovarian; SK-OV-3 ovarian; EKVX NSCLC.
Common to all, as to assay: NCI tumour cell line growth inhibition, 48 h

Turning to `O=c1c2c(-c3ccccc3)c3ccccc3nc2cnn1-c1ccccc1`, the TGI with SW-620 colon, with NCI-H23 lung, with SK-MEL-28 melanoma, in the assay on M14 melanoma, in the assay on SF-268 CNS and in the assay with OVCAR-4 ovarian was over 100 µM each time. The TGI in the assay on SK-OV-3 ovarian and in the assay with EKVX NSCLC was over 100 µM throughout.
Turning to `Clc1ccccc1CN1COc2c(ccc3cccnc23)C1`, the TGI with SW-620 colon came out at 12.4 µM; in the assay on NCI-H23 lung, 5.34 µM; with SK-MEL-28 melanoma it was 14.9 µM; in the assay with M14 melanoma, 10.8 µM; with SF-268 CNS it was 13.5 µM; in the assay on OVCAR-4 ovarian, 14.6 µM. Also, the TGI was found to be 19.9 µM with SK-OV-3 ovarian and 15.9 µM with EKVX NSCLC.
As to `N=c1c2ccccc2sc2nc3ccccc3n12`, the TGI in the assay with SW-620 colon, in the assay on NCI-H23 lung, in the assay with SK-MEL-28 melanoma, in the assay with SF-268 CNS, in the assay with OVCAR-4 ovarian and in the assay on SK-OV-3 ovarian was over 100 µM in each case. In the assay with EKVX NSCLC, this compound showed a TGI of over 100 µM.
As to `COC/N=C(\NC#N)NCOC`, the TGI was over 59.7 µM in the assay on SW-620 colon; over 100 µM in the assay on NCI-H23 lung; over 100 µM in the assay with SK-MEL-28 melanoma; over 100 µM in the assay on M14 melanoma; over 100 µM in the assay with SF-268 CNS; over 100 µM in the assay with OVCAR-4 ovarian. Also, the TGI in the assay with SK-OV-3 ovarian and in the assay with EKVX NSCLC was over 100 µM throughout.
For the compound `COc1ccc(O)c(C(=O)CCC(=O)O)c1`, the TGI with SW-620 colon is over 100 µM; in the assay on NCI-H23 lung, over 100 µM; in the assay on SK-MEL-28 melanoma, over 100 µM; in the assay with M14 melanoma it was over 10 µM; in the assay with SF-268 CNS, over 100 µM; in the assay with OVCAR-4 ovarian it was over 100 µM. Further, the TGI in the assay with SK-OV-3 ovarian and in the assay on EKVX NSCLC was over 100 µM throughout.
On to `C1=Cc2nc1c(-c1ccccc1)c1ccc([nH]1)c(-c1ccccc1)c1nc(c(-c3ccccc3)c3ccc([nH]3)c2-c2ccccc2)C=C1`, for which the TGI in the assay on SW-620 colon, in the assay with NCI-H23 lung, in the assay on SK-MEL-28 melanoma, in the assay with M14 melanoma, with SF-268 CNS and in the assay on OVCAR-4 ovarian was over 100 µM throughout. In addition, the TGI with SK-OV-3 ovarian and with EKVX NSCLC was over 100 µM in each case.
As to `COC(=O)c1cc(=O)nc2cc3cccccc3n12`, the TGI in the assay with SW-620 colon, in the assay with NCI-H23 lung, in the assay with SK-MEL-28 melanoma, in the assay on M14 melanoma, in the assay on SK-OV-3 ovarian and in the assay with EKVX NSCLC was over 100 µM throughout.
For `CCOc1ccc(N=C(NC(=O)c2ccccc2)SC)cc1`, the TGI in the assay with SW-620 colon, in the assay with NCI-H23 lung, in the assay on SK-MEL-28 melanoma, in the assay with M14 melanoma, in the assay with SF-268 CNS and with OVCAR-4 ovarian was over 100 µM throughout. Further, the TGI with SK-OV-3 ovarian and in the assay on EKVX NSCLC was over 100 µM throughout.
Turning to `CC1CC2(S(=O)(=O)c3ccccc3)ON1CC2S(=O)(=O)c1ccccc1` (stereo unspecified), the TGI in the assay on SW-620 colon, in the assay with NCI-H23 lung, in the assay on SK-MEL-28 melanoma, with M14 melanoma, in the assay with SF-268 CNS and with OVCAR-4 ovarian was over 100 µM throughout. The TGI in the assay with SK-OV-3 ovarian and in the assay on EKVX NSCLC was over 100 µM throughout.
Regarding `COc1ccccc1-c1cc(=O)c2cc(C)c(C)c(C(=O)O)c2o1`, the TGI in the assay on SW-620 colon, in the assay with NCI-H23 lung, in the assay on SK-MEL-28 melanoma, with M14 melanoma, in the assay on SF-268 CNS and with OVCAR-4 ovarian was over 100 µM each time. Moreover, the TGI in the assay with SK-OV-3 ovarian and in the assay on EKVX NSCLC was over 100 µM each time.
With `COc1ccc(/C=C2\CCC(CCN(C)C)(C3=CCCC3)C2=O)cc1` (stereo unspecified), the TGI with SW-620 colon worked out at 31 µM; in the assay on NCI-H23 lung it was 81.3 µM; with SK-MEL-28 melanoma it was 35.1 µM; in the assay with M14 melanoma, 28.3 µM; in the assay on SF-268 CNS, 40 µM; in the assay with OVCAR-4 ovarian, 44.5 µM. In addition, the TGI in the assay on EKVX NSCLC was 39.9 µM.
With `CCOc1cccc2c1N[S@@](=O)S2`, the TGI in the assay with SW-620 colon, with NCI-H23 lung, in the assay with SK-MEL-28 melanoma, with M14 melanoma, in the assay on SF-268 CNS and in the assay with SK-OV-3 ovarian was over 100 µM throughout. In the assay on EKVX NSCLC, this compound had a TGI of over 100 µM.
In the case of `OC1=CN=COc2ccccc21`, the TGI in the assay on SW-620 colon, with NCI-H23 lung, with SK-MEL-28 melanoma, with M14 melanoma, with SF-268 CNS and in the assay with OVCAR-4 ovarian was over 100 µM in each case. In addition, the TGI in the assay with SK-OV-3 ovarian and with EKVX NSCLC was over 100 µM throughout.
`CCCCCCC(O)CC[C@H]1CCC[C@@H](C)N1` (stereo partly specified): the TGI in the assay on SW-620 colon was over 100 µM; in the assay on NCI-H23 lung it was under 10 µM; in the assay with SK-MEL-28 melanoma, over 31.6 µM; with M14 melanoma, over 100 µM; with SF-268 CNS, over 31.6 µM; with OVCAR-4 ovarian, under 10 µM. The TGI in the assay with SK-OV-3 ovarian and in the assay on EKVX NSCLC was over 100 µM each time.
On to `CCC1=CCN(c2cc(C)ccn2)OC1c1ccccc1` (stereo unspecified), for which the TGI with SW-620 colon was over 100 µM; in the assay with NCI-H23 lung, over 100 µM; in the assay on SK-MEL-28 melanoma, 77.1 µM; with M14 melanoma, over 100 µM; in the assay with SF-268 CNS it was over 100 µM; with OVCAR-4 ovarian, over 100 µM. The TGI in the assay with SK-OV-3 ovarian and in the assay on EKVX NSCLC was over 100 µM each time.
Take `COC(=O)C(C(=O)C(=O)Nc1ccc(C)cc1C)c1csc(-n2nc(-c3ccccc3)cc2-c2ccccc2)n1` (stereo unspecified): the TGI with SW-620 colon, in the assay with NCI-H23 lung, in the assay with M14 melanoma, with SF-268 CNS, with OVCAR-4 ovarian and in the assay with SK-OV-3 ovarian was over 100 µM each time. In addition, the TGI in the assay with EKVX NSCLC is over 100 µM.
As for `CC1(C)COC2C(N(Cc3ccccc3)Cc3ccccc3)C(=O)N21` (stereo unspecified), the TGI in the assay on SW-620 colon was over 100 µM; with NCI-H23 lung, over 100 µM; in the assay with SK-MEL-28 melanoma, over 100 µM; in the assay with M14 melanoma, 56.2 µM; in the assay on SF-268 CNS, 82.1 µM; in the assay on OVCAR-4 ovarian, over 100 µM. Also, the TGI in the assay with SK-OV-3 ovarian is 66.1 µM; with EKVX NSCLC, over 100 µM.
As to `CC1=Nc2ccccc2SC(c2c(Cl)cccc2Cl)C1` (stereo unspecified), the TGI worked out at 1.34 µM in the assay on SW-620 colon; 2.64 µM in the assay with NCI-H23 lung; 2.69 µM in the assay on SK-MEL-28 melanoma; 3.07 µM in the assay with M14 melanoma; 2.73 µM with SF-268 CNS; 4.56 µM with OVCAR-4 ovarian. Moreover, the results for the TGI in the assay on SK-OV-3 ovarian and in the assay on EKVX NSCLC were 6.44 µM and 3.82 µM, respectively.
For `CN/N=C(/c1nc2ccc([N+](=O)[O-])cc2[nH]c1=O)C(O)c1ccc(C(O)/C(=N\NC)c2nc3ccc([N+](=O)[O-])cc3[nH]c2=O)cc1` (stereo unspecified), the TGI in the assay on SW-620 colon, in the assay with NCI-H23 lung, in the assay with SK-MEL-28 melanoma, with M14 melanoma, in the assay on SF-268 CNS and in the assay with SK-OV-3 ovarian was over 100 µM throughout. This compound also returned a TGI with EKVX NSCLC of over 100 µM.
In the case of `C#CCN(N=O)C(=O)ON1C(=O)CCC1=O`, the TGI in the assay with SW-620 colon, in the assay on NCI-H23 lung, in the assay with SK-MEL-28 melanoma, in the assay on M14 melanoma, in the assay on SF-268 CNS and with OVCAR-4 ovarian was over 100 µM each time. Further, the TGI with SK-OV-3 ovarian and in the assay on EKVX NSCLC was over 100 µM each time.
With `O=C1CCC2(c3ccccc3)Nc3ccccc3N12` (stereo unspecified), the TGI with SW-620 colon, in the assay with NCI-H23 lung, in the assay on SK-MEL-28 melanoma, in the assay on M14 melanoma, with SF-268 CNS and with OVCAR-4 ovarian was over 100 µM in each case. Also, the TGI in the assay with EKVX NSCLC was over 100 µM.
`O=C1c2ccccc2C(=O)C12CCc1ccccc12`: the TGI in the assay with SW-620 colon, in the assay with NCI-H23 lung, in the assay with SK-MEL-28 melanoma, with M14 melanoma, in the assay with SF-268 CNS and in the assay with OVCAR-4 ovarian was over 100 µM throughout. Further, the TGI with SK-OV-3 ovarian and in the assay with EKVX NSCLC was over 100 µM each time.
For the compound `COc1cc2c(c3c1c(=O)c1ccccc1n3C)C=CC(C)(C)O2`, the TGI in the assay on SW-620 colon, with NCI-H23 lung, in the assay with SK-MEL-28 melanoma, in the assay with M14 melanoma, in the assay with SF-268 CNS and with OVCAR-4 ovarian was over 100 µM each time. For the same compound, in the assay on SK-OV-3 ovarian, the TGI is over 100 µM.
As for `C=C1C(=O)C23[C@H](O)C1CC[C@H]2[C@]12COC3(O)[C@@H](O)[C@@H]1C(C)(C)CC[C@@H]2O`, the TGI turned out to be 4.86 µM with SW-620 colon; 29.8 µM in the assay on NCI-H23 lung; 12.9 µM in the assay on SK-MEL-28 melanoma; 18.5 µM with M14 melanoma; 18.3 µM in the assay on SF-268 CNS; 33.5 µM in the assay with OVCAR-4 ovarian. For the same compound, the TGI in the assay with SK-OV-3 ovarian was found to be 31 µM; in the assay with EKVX NSCLC, 34.6 µM.
On to `CN(C)C(=S)/N=c1\ssc(=S)n1C`, for which the TGI with SW-620 colon, with NCI-H23 lung, in the assay on SK-MEL-28 melanoma, in the assay on M14 melanoma, in the assay with SF-268 CNS and with OVCAR-4 ovarian was over 100 µM each time. For the same compound, the TGI in the assay on SK-OV-3 ovarian and with EKVX NSCLC was over 100 µM throughout.

(Values after PubChem BioAssay (NCI).)
